The target in assay [1] is P2Y purinoceptor 12 (Rattus norvegicus) (UniProt Q9EPX4). The assay can be described thus: Antagonist activity at P2Y12 receptor in platelet-rich plasma of male Sprague-Dawley rat assessed as inhibition of VASP phosphorylation at Ser239 at 30 uM pretreated for 10 mins followed by PGE1/ADP addition measured after 10 mins by ELISA relative to control. The note with it: time 20.0 min. The assay is classed as cell-free. (In general: An ELISA detects its analyte on a solid surface through an enzyme-linked reagent.)

A short description of assay [2]: Antagonist activity at P2Y1 receptor in platelet-rich plasma of male Japanese white rabbit assessed as inhibition of ADP-induced cytosolic Ca2+ level pretreated for 5 mins followed by ADP addition by FLUO-4 AM dye based analysis. The assay is classed as cell-free. The note with it: Oryctolagus cuniculus.
Assay [3] relates to Rattus norvegicus. The assay can be described thus: Anti-platelet aggregation in Sprague-Dawley rat assessed as inhibition of ADP-induced platelet aggregation at 10 mg/kg, po measured for 15 mins in presence of 2.5 uM ADP by cell counter analysis relative to control. In kind it is functional. The note with it: 0.25 h.
The subject of assay [4] is Rattus norvegicus. The assay can be described thus: Anti-platelet aggregation in Sprague-Dawley rat assessed as inhibition of ADP-induced platelet aggregation at 10 mg/kg, po measured for 15 mins in presence of 10 uM ADP by cell counter analysis relative to control. The assay is classed as functional. The note with it: 0.25 h.
The target of a further assay is P2Y purinoceptor 1 (Rattus norvegicus, UniProt P49651). The assay can be described thus: Antagonist activity at P2Y1 receptor in platelet-rich plasma of rat assessed as inhibition of ADP-induced cytosolic Ca2+ level pretreated for 5 mins followed by ADP addition by FLUO-4 AM dye based analysis. The assay is classed as functional, cell-free.
Assay [5] has as its system Rattus norvegicus. Briefly: Neuroprotective activity in MCAO-induced brain damage Sprague-Dawley rat model assessed as reduction in brain water content at 10 mg/kg, iv administered immediately after arterial occlusion measured after 24 hrs. In kind it is functional, organism-based.
Assay [6] deals with Plasma. The assay can be described thus: Anti-platelet aggregation in platelet-rich plasma of male male Sprague-Dawley rat assessed as inhibition of ADP-induced platelet aggregation preincubated for 15 mins followed by ADP addition measured up to 10 mins by Born's turbidometric method. The assay is classed as functional, cell-free.
Assay [7] concerns Rattus norvegicus. Briefly: Neuroprotective activity in MCAO-induced brain damage Sprague-Dawley rat model assessed as plasma GSH-px level at 10 mg/kg, iv administered immediately after arterial occlusion measured after 24 hrs. In kind it is functional.
Assay [8] deals with Rattus norvegicus. Briefly: Anti-platelet aggregation in Sprague-Dawley rat assessed as inhibition of ADP-induced platelet aggregation at 10 mg/kg, po measured for 15 mins in presence of 5 uM ADP by cell counter analysis relative to control. The assay is classed as functional. The note with it: 0.25 h.
For a further assay, the system named is HT-22. The assay can be described thus: Neuroprotective activity against H2O2-induced oxidative stress in mouse HT-22 cells assessed as cell viability at 10 uM preincubated for 2 hrs followed by H2O2 addition measured after 24 hrs by MTT assay (reference value: 55 +/- 4.6 %). The assay is classed as functional. The conditions noted are these: time 26 hrs, read-out: Activity. (Tetrazolium dyes change colour on reduction, which living cells bring about.)

The subject of assay [9] is Plasma. The assay can be described thus: Anti-platelet aggregation in platelet-rich plasma of male human assessed as inhibition of ADP-induced platelet aggregation preincubated for 15 mins followed by ADP addition measured up to 10 mins by Born's turbidometric method. In kind it is functional, cell-free.
For the next assay, the species on record is Oryctolagus cuniculus. Briefly: Antagonist activity at P2Y12 receptor in platelet-rich plasma of male Japanese white rabbit assessed as inhibition of VASP phosphorylation at Ser239 at 30 uM pretreated for 10 mins followed by PGE1/ADP addition measured after 10 mins by ELISA relative to control. The assay is classed as cell-free. The conditions noted are these: time 20.0 min.

Assay [10] has as its system Plasma. The assay can be described thus: Anti-platelet aggregation in platelet-rich plasma of male Japanese white rabbit assessed as inhibition of ADP-induced platelet aggregation preincubated for 15 mins followed by ADP addition measured up to 10 mins by Born's turbidometric method. The assay is classed as functional, cell-free. The note with it: Oryctolagus cuniculus.

The subject of assay [11] is Rattus norvegicus. Briefly: Neuroprotective activity in MCAO-induced brain damage Sprague-Dawley rat model assessed as plasma MDA level at 10 mg/kg, iv administered immediately after arterial occlusion measured after 24 hrs (reference value: 51.7 %). The assay is classed as functional.
In assay [12] the test system is Rattus norvegicus. Briefly: Anti-platelet aggregation in Sprague-Dawley rat assessed as inhibition of ADP-induced platelet aggregation at 6 mg/kg, po measured for 15 mins in presence of 10 uM ADP by cell counter analysis relative to control. The assay is classed as functional. The conditions noted are these: 0.25 h.
The test system of assay [13] is Rattus norvegicus. Briefly: Neuroprotective activity in MCAO-induced brain damage Sprague-Dawley rat model assessed as plasma MDA level at 6 mg/kg, iv administered immediately after arterial occlusion measured after 24 hrs (reference value: 51.7 %). The assay is classed as functional.
Assay [14] deals with Rattus norvegicus. The assay can be described thus: Neuroprotective activity in MCAO-induced brain damage Sprague-Dawley rat model assessed as reduction in brain infarction size at 6 mg/kg, iv administered immediately after arterial occlusion measured after 24 hrs by TTC staining based analysis relative to control. Further details: scale not given: the % may be the effect or the level left; call rule not given here. The assay is classed as functional.

The test system of assay [15] is Rattus norvegicus. Briefly: Anti-platelet aggregation in Sprague-Dawley rat assessed as inhibition of ADP-induced platelet aggregation at 6 mg/kg, po measured for 15 mins in presence of 2.5 uM ADP by cell counter analysis relative to control. In kind it is functional. The note with it: 0.25 h.
Assay [16] has as its system Rattus norvegicus. The assay can be described thus: Neuroprotective activity in MCAO-induced brain damage Sprague-Dawley rat model assessed as reduction in brain water content at 6 mg/kg, iv administered immediately after arterial occlusion measured after 24 hrs. In kind it is functional, organism-based.
The nature of assay [17]: Antioxidant activity assessed as inhibition of DPPH radical scavenging activity incubated for 30 mins under dark condition by absorbance based method. The assay is classed as functional.
Assay [18] concerns Rattus norvegicus. Briefly: Anti-platelet aggregation in Sprague-Dawley rat assessed as inhibition of ADP-induced platelet aggregation at 6 mg/kg, po measured for 15 mins in presence of 5 uM ADP by cell counter analysis relative to control. The note with it: 0.25 h. The assay is classed as functional.
Assay [19] relates to Rattus norvegicus. The assay can be described thus: Neuroprotective activity in MCAO-induced brain damage Sprague-Dawley rat model assessed as plasma GSH-px level at 6 mg/kg, iv administered immediately after arterial occlusion measured after 24 hrs. The assay is classed as functional.
In assay [20] the test system is Rattus norvegicus. The assay can be described thus: Neuroprotective activity in MCAO-induced brain damage Sprague-Dawley rat model assessed as reduction in brain infarction size at 10 mg/kg, iv administered immediately after arterial occlusion measured after 24 hrs by TTC staining based analysis relative to control. In kind it is functional. Further details: scale not given: the % may be the effect or the level left.

Assay [21] can be described thus: Antagonist activity at P2Y12 receptor in platelet-rich plasma of male Japanese white rabbit assessed as inhibition of VASP phosphorylation at Ser239 pretreated for 10 mins followed by PGE1/ADP addition measured after 10 mins by ELISA. The conditions noted are these: Oryctolagus cuniculus. In kind it is cell-free.
The next assay addresses P2Y purinoceptor 12 (Rattus norvegicus, UniProt Q9EPX4). Briefly: Antagonist activity at P2Y12 receptor in platelet-rich plasma of male Sprague-Dawley rat assessed as inhibition of VASP phosphorylation at Ser239 pretreated for 10 mins followed by PGE1/ADP addition measured after 10 mins by ELISA. The assay is classed as cell-free.

Chain of P2Y purinoceptor 12 (Rattus norvegicus) (Q9EPX4 whole entry): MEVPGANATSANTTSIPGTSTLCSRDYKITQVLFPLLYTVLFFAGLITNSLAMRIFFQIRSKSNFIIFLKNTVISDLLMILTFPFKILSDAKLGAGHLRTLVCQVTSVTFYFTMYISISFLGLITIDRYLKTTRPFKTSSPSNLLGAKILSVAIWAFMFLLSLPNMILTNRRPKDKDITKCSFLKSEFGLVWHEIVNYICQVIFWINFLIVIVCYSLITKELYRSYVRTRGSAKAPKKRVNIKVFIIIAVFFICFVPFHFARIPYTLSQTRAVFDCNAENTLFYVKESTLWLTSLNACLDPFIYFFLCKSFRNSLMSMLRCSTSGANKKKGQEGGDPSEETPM
Chain of P2Y purinoceptor 1 (P49651 whole entry): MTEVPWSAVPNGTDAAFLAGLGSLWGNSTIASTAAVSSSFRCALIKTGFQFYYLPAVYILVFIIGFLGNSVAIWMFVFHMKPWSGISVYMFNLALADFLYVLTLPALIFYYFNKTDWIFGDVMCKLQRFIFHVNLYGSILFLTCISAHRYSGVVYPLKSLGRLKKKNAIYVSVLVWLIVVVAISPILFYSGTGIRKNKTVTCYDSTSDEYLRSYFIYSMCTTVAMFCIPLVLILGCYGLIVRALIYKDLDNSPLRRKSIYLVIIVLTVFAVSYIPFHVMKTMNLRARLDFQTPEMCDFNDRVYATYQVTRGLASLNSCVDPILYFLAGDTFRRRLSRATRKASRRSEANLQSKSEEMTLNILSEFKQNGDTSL
Chain of P2Y purinoceptor 12 (Q9EPX4 whole entry): as the sequence (Q9EPX4 whole entry) above

Regarding `CC(C)(C)c1ccccc1Oc1ncccc1NC(=O)Nc1ccc(OC(F)(F)F)cc1`, the inhibition (as a rule, the share of the control response that was lost under treatment) in assay [1] came to 37.6%; in the assay filed under Oryctolagus cuniculus, 30.3%. Moreover, the IC50 (usually the midpoint of a concentration-inhibition curve) in [2] is 2.5 µM; on P2Y purinoceptor 1 it was 2.66 µM; in the assay on Plasma [6], 3.31 µM; in the assay on Plasma [9], 3.4 µM; in the assay on Plasma [10], 4.42 µM. The inhibition in vivo (commonly the relative decrease from the control value, in per cent) at 10 mg/kg in the assay with Rattus norvegicus [3] is 65.9%; in the assay on Rattus norvegicus [4], 34.4%; in the assay on Rattus norvegicus [8], 64.6%. In addition, the Activity result in the assay with Rattus norvegicus [5] is reported as “Active; Water Content Did Not Return To Blank Level”; in the assay on Rattus norvegicus [7], 489.1 U/ml; with Rattus norvegicus [11] it was 44.1%. The viability at 10 µM in the assay with HT-22 worked out at 82.6%.
Take `CC1=NN(c2ccccc2)C(=O)C1` [EDARAVONE]: the inhibition in vivo at 6 mg/kg in the assay on Rattus norvegicus [12] was 29.4%; with Rattus norvegicus [15], 55.4%; in the assay on Rattus norvegicus [18], 48.5%. Also, the Activity is recorded as 31% in the assay with Rattus norvegicus [13], 35.7% with Rattus norvegicus [14], “Active; Water Content Did Not Return To Blank Level” in the assay with Rattus norvegicus [16] and 579.3 U/ml in the assay with Rattus norvegicus [19]. The IC50 in assay [17] came to 23.6 µM.
With `Cc1nc(-c2cccc(C#N)c2)n(OCc2ccc(C#N)cc2)c1C(=O)O`, the inhibition in assay [1] (filed as antagonist) was determined as 40.8%; in the assay listed under Oryctolagus cuniculus it was 27.9%. For the same molecule, the IC50 was found to be 4.07 µM in [2]; 2.95 µM at P2Y purinoceptor 1; 3.84 µM in the assay on Plasma [6]; 4.24 µM with Plasma [9]; 3.5 µM with Plasma [10]. Also, the inhibition in vivo at 10 mg/kg in the assay on Rattus norvegicus [3] stood at 34.9%; with Rattus norvegicus [4], 19.1%; in the assay on Rattus norvegicus [8], 35.1%. Further, the Activity result was “Active; Water Content Did Not Return To Blank Level” in the assay on Rattus norvegicus [5], 33.6% in the assay with Rattus norvegicus [20], 677.6 U/ml with Rattus norvegicus [7] and 48.8% with Rattus norvegicus [11]. Further, in the assay with HT-22, the viability at 10 µM amounted to 81.3%.
For `CCCSc1nc(N[C@@H]2C[C@H]2c2ccc(F)c(F)c2)c2nnn([C@@H]3C[C@H](OCCO)[C@@H](O)[C@H]3O)c2n1` [TICAGRELOR], the inhibition in vivo at 10 mg/kg in the assay with Rattus norvegicus [3] turned out to be 71.8%; with Rattus norvegicus [4] it was 77.7%; with Rattus norvegicus [8] it was 73.7%. The IC50 in [21] was 2.89 µM; in the assay with Plasma [6], 0.56 µM; on P2Y purinoceptor 12, 2.11 µM; in the assay with Plasma [9], 0.69 µM; in the assay with Plasma [10] it was 0.5 µM. Besides, the viability at 10 µM in the assay on HT-22 was 76%.

The values above are taken from ChEMBL document CHEMBL6182910, “Design, Synthesis, and Biological Evaluation of 4-(Difluoromethyl)-1H-imidazole-5-carboxylic Acids/4-(3-Cyanophenoxy)pyrimidine-5-carboxylic Acids as P2Y1 Receptor Antagonists for Ischemic Stroke Treatment” (J Med Chem, 2025).
